Laboratory results as given in PubChem BioAssay (NCI).
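Where inhibition never reached the appropriate level, the endpoint shown equals the highest concentration tested. Otherwise, values were interpolated linearly from a five-concentration, 48-hour dose response in 96-well plates. Definition used: TGI = concentration required for complete inhibition of growth.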

How the values were obtained:
Experiment in all cases: DTP human tumour cell line panel, 48 h
786-0 renal = test system: 786-0 renal
A498 renal = test system: A498 renal
A549 NSCLC = test system: A549 NSCLC
ACHN renal = test system: ACHN renal
BT-549 breast = test system: BT-549 breast
CAKI-1 renal = test system: CAKI-1 renal
CCRF-CEM leukemia = test system: CCRF-CEM leukemia
COLO 205 colon = test system: COLO 205 colon
DU-145 prostate = test system: DU-145 prostate
EKVX NSCLC = test system: EKVX NSCLC
HCC-2998 colon = test system: HCC-2998 colon
HCT-116 colon = test system: HCT-116 colon
HCT-15 colon = test system: HCT-15 colon
HL-60(TB) leukemia = test system: HL-60(TB) leukemia
HOP-62 NSCLC = test system: HOP-62 NSCLC
HOP-92 NSCLC = test system: HOP-92 NSCLC
HS 578T breast = test system: HS 578T breast
HT29 colon = test system: HT29 colon
IGROV1 ovarian = test system: IGROV1 ovarian
K-562 leukemia = test system: K-562 leukemia
KM12 colon = test system: KM12 colon
LOX IMVI melanoma = test system: LOX IMVI melanoma
M14 melanoma = test system: M14 melanoma
MALME-3M melanoma = test system: MALME-3M melanoma
MCF7 breast = test system: MCF7 breast
MDA-MB-231 breast = test system: MDA-MB-231 breast
MDA-MB-435 = test system: MDA-MB-435
MDA-N = test system: MDA-N
MOLT-4 leukemia = test system: MOLT-4 leukemia
NCI-H226 lung = test system: NCI-H226 lung
NCI-H23 lung = test system: NCI-H23 lung
NCI-H522 lung = test system: NCI-H522 lung
NCI/ADR-RES ovarian = test system: NCI/ADR-RES ovarian
OVCAR-3 ovarian = test system: OVCAR-3 ovarian
OVCAR-4 ovarian = test system: OVCAR-4 ovarian
OVCAR-5 ovarian = test system: OVCAR-5 ovarian
OVCAR-8 ovarian = test system: OVCAR-8 ovarian
PC-3 prostate = test system: PC-3 prostate
RPMI-8226 leukemia = test system: RPMI-8226 leukemia
RXF 393 renal = test system: RXF 393 renal
SF-268 CNS = test system: SF-268 CNS
SF-295 CNS = test system: SF-295 CNS
SF-539 CNS = test system: SF-539 CNS
SK-MEL-2 melanoma = test system: SK-MEL-2 melanoma
SK-MEL-28 melanoma = test system: SK-MEL-28 melanoma
SK-MEL-5 melanoma = test system: SK-MEL-5 melanoma
SK-OV-3 ovarian = test system: SK-OV-3 ovarian
SN12C renal = test system: SN12C renal
SNB-19 CNS = test system: SNB-19 CNS
SNB-75 CNS = test system: SNB-75 CNS
SR leukemia = test system: SR leukemia
SW-620 colon = test system: SW-620 colon
T-47D breast = test system: T-47D breast
TK-10 renal = test system: TK-10 renal
U251 CNS = test system: U251 CNS
UACC-257 melanoma = test system: UACC-257 melanoma
UACC-62 melanoma = test system: UACC-62 melanoma
UO-31 renal = test system: UO-31 renal
NCI-H460 lung = test system: NCI-H460 lung

Compound Cc1ccc(O)c(C(c2ccc(C(c3cc(C)ccc3O)c3cc(C)ccc3O)cc2)c2cc(C)ccc2O)c1 has a TGI (786-0 renal) of 3.11 µM, a TGI (A498 renal) of 2.91 µM and a TGI (A549 NSCLC) of 3.23 µM. The TGI (ACHN renal) was 3.17 µM, the TGI (BT-549 breast) was 3.49 µM and the TGI (CAKI-1 renal) was 2.92 µM. It also gave a TGI (CCRF-CEM leukemia) of 5.63 µM, a TGI (COLO 205 colon) of 2.75 µM and a TGI (DU-145 prostate) of 3.21 µM. It also gave a TGI (EKVX NSCLC) of 3.57 µM, a TGI (HCC-2998 colon) of 3.31 µM and a TGI (HCT-116 colon) of 3.04 µM. The TGI (HCT-15 colon) was 3.2 µM, the TGI (HL-60(TB) leukemia) was 5.47 µM and the TGI (HOP-62 NSCLC) was 4.36 µM. The TGI (HOP-92 NSCLC) was 3.81 µM, the TGI (HS 578T breast) was 4.7 µM and the TGI (HT29 colon) was 3.57 µM. It also gave a TGI (IGROV1 ovarian) of 3.16 µM, a TGI (K-562 leukemia) of 3.56 µM and a TGI (KM12 colon) of 3.09 µM. The TGI (LOX IMVI melanoma) was 3.38 µM, the TGI (M14 melanoma) was 3.36 µM and the TGI (MALME-3M melanoma) was 3.45 µM. It also gave a TGI (MCF7 breast) of 4.36 µM, a TGI (MDA-MB-231 breast) of 2.67 µM and a TGI (MDA-MB-435) of 3.29 µM. The TGI (MDA-N) was 2.87 µM, the TGI (MOLT-4 leukemia) was > 100 µM and the TGI (NCI-H226 lung) was 3.61 µM. For the same compound, the TGI (NCI-H23 lung) was 3.25 µM, the TGI (NCI-H522 lung) was 3.62 µM and the TGI (NCI/ADR-RES ovarian) was 3.85 µM. The TGI (OVCAR-3 ovarian) was 3.86 µM, the TGI (OVCAR-4 ovarian) was 3.22 µM and the TGI (OVCAR-5 ovarian) was 3.28 µM. The TGI (OVCAR-8 ovarian) was 3.41 µM, the TGI (PC-3 prostate) was 3 µM and the TGI (RPMI-8226 leukemia) was 3.4 µM. The TGI (RXF 393 renal) was 3.4 µM, the TGI (SF-268 CNS) was 3.31 µM and the TGI (SF-295 CNS) was 4.01 µM. For the same compound, the TGI (SF-539 CNS) was 3.29 µM, the TGI (SK-MEL-2 melanoma) was 3.89 µM and the TGI (SK-MEL-28 melanoma) was 3.5 µM. It also gave a TGI (SK-MEL-5 melanoma) of 3.22 µM, a TGI (SK-OV-3 ovarian) of 3.27 µM and a TGI (SN12C renal) of 3.1 µM. It also gave a TGI (SNB-19 CNS) of 2.97 µM, a TGI (SNB-75 CNS) of 3.49 µM and a TGI (SR leukemia) of 6.33 µM. For the same compound, the TGI (SW-620 colon) was 3.48 µM, the TGI (T-47D breast) was 3.23 µM and the TGI (TK-10 renal) was 2.93 µM. It also gave a TGI (U251 CNS) of 3.82 µM, a TGI (UACC-257 melanoma) of 3.33 µM and a TGI (UACC-62 melanoma) of 3.15 µM. The TGI (UO-31 renal) was 3.25 µM.

With CC/C=C/C[C@H](O[Si](C)(C)C(C)(C)C)[C@H]1C[C@H]2O[C@H]([C@@H](O)C#C[Si](C)(C)C)C[C@H]2O1 the TGI (786-0 renal) was 28 µM, the TGI (A498 renal) was 32.8 µM and the TGI (A549 NSCLC) was 21.8 µM. It also gave a TGI (ACHN renal) of 29 µM, a TGI (BT-549 breast) of 33.4 µM and a TGI (CAKI-1 renal) of 24.2 µM. The TGI (CCRF-CEM leukemia) was > 100 µM, the TGI (COLO 205 colon) was 28.2 µM and the TGI (DU-145 prostate) was 28.3 µM. The TGI (EKVX NSCLC) was 25.9 µM, the TGI (HCC-2998 colon) was 35.1 µM and the TGI (HCT-116 colon) was 24.5 µM. The TGI (HCT-15 colon) was 26.6 µM, the TGI (HL-60(TB) leukemia) was > 100 µM and the TGI (HOP-62 NSCLC) was 30.4 µM. It also gave a TGI (HOP-92 NSCLC) of 22.4 µM, a TGI (HS 578T breast) of 32.4 µM and a TGI (HT29 colon) of 24.4 µM. For the same compound, the TGI (IGROV1 ovarian) was 27.5 µM, the TGI (K-562 leukemia) was > 44.3 µM and the TGI (KM12 colon) was 39.2 µM. It also gave a TGI (LOX IMVI melanoma) of 22.1 µM, a TGI (M14 melanoma) of 24.7 µM and a TGI (MALME-3M melanoma) of 24.8 µM. It also gave a TGI (MCF7 breast) of 20.9 µM, a TGI (MDA-MB-231 breast) of 30.2 µM and a TGI (MDA-MB-435) of 25.3 µM. The TGI (MDA-N) was 24.8 µM, the TGI (MOLT-4 leukemia) was > 48.6 µM and the TGI (NCI-H226 lung) was 20.6 µM. It also gave a TGI (NCI-H23 lung) of 24.7 µM, a TGI (NCI-H460 lung) of 36 µM and a TGI (NCI-H522 lung) of 11.9 µM. The TGI (NCI/ADR-RES ovarian) was 26.3 µM, the TGI (OVCAR-3 ovarian) was 30.2 µM and the TGI (OVCAR-4 ovarian) was 23.1 µM. It also gave a TGI (OVCAR-5 ovarian) of 27.3 µM, a TGI (OVCAR-8 ovarian) of 27.9 µM and a TGI (PC-3 prostate) of 26.2 µM. The TGI (RPMI-8226 leukemia) was 37.6 µM, the TGI (RXF 393 renal) was 20.4 µM and the TGI (SF-268 CNS) was 27.4 µM. The TGI (SF-295 CNS) was 27.5 µM, the TGI (SK-MEL-2 melanoma) was 31.3 µM and the TGI (SK-MEL-28 melanoma) was 29.7 µM. It also gave a TGI (SK-MEL-5 melanoma) of 20 µM, a TGI (SK-OV-3 ovarian) of 28.9 µM and a TGI (SN12C renal) of 17.2 µM. It also gave a TGI (SNB-19 CNS) of 26.9 µM, a TGI (SNB-75 CNS) of 31 µM and a TGI (SR leukemia) of 7.66 µM. It also gave a TGI (SW-620 colon) of 37.7 µM, a TGI (T-47D breast) of 23.2 µM and a TGI (TK-10 renal) of 30 µM. It also gave a TGI (U251 CNS) of 30.2 µM, a TGI (UACC-257 melanoma) of 23.2 µM and a TGI (UACC-62 melanoma) of 34.1 µM. For the same compound, the TGI (UO-31 renal) was 27.6 µM.

For COc1ccc(NC2=NCCO2)c2c1CCCC2, the TGI (786-0 renal) was > 100 µM, the TGI (A498 renal) was > 100 µM and the TGI (A549 NSCLC) was > 100 µM. For the same compound, the TGI (ACHN renal) was > 100 µM, the TGI (BT-549 breast) was > 100 µM and the TGI (CAKI-1 renal) was > 100 µM. The TGI (CCRF-CEM leukemia) was 86 µM, the TGI (COLO 205 colon) was > 100 µM and the TGI (DU-145 prostate) was > 100 µM. The TGI (EKVX NSCLC) was > 100 µM, the TGI (HCC-2998 colon) was > 100 µM and the TGI (HCT-116 colon) was > 100 µM. For the same compound, the TGI (HCT-15 colon) was > 100 µM, the TGI (HL-60(TB) leukemia) was 40 µM and the TGI (HOP-92 NSCLC) was 79.5 µM. For the same compound, the TGI (HS 578T breast) was 91.6 µM, the TGI (HT29 colon) was > 100 µM and the TGI (IGROV1 ovarian) was > 100 µM. The TGI (K-562 leukemia) was > 100 µM, the TGI (KM12 colon) was > 100 µM and the TGI (LOX IMVI melanoma) was > 100 µM. For the same compound, the TGI (M14 melanoma) was > 100 µM, the TGI (MALME-3M melanoma) was > 100 µM and the TGI (MCF7 breast) was > 100 µM. For the same compound, the TGI (MDA-MB-231 breast) was > 100 µM, the TGI (MDA-MB-435) was > 100 µM and the TGI (MDA-N) was > 100 µM. The TGI (MOLT-4 leukemia) was 42.4 µM, the TGI (NCI-H226 lung) was 65.3 µM and the TGI (NCI-H23 lung) was 87.9 µM. The TGI (NCI-H460 lung) was > 100 µM, the TGI (NCI-H522 lung) was > 100 µM and the TGI (NCI/ADR-RES ovarian) was > 100 µM. For the same compound, the TGI (OVCAR-3 ovarian) was > 100 µM, the TGI (OVCAR-4 ovarian) was > 100 µM and the TGI (OVCAR-5 ovarian) was > 100 µM. The TGI (OVCAR-8 ovarian) was > 100 µM, the TGI (PC-3 prostate) was > 100 µM and the TGI (RPMI-8226 leukemia) was 87 µM. For the same compound, the TGI (RXF 393 renal) was 86.2 µM, the TGI (SF-295 CNS) was > 100 µM and the TGI (SF-539 CNS) was > 100 µM. For the same compound, the TGI (SK-MEL-2 melanoma) was 42.6 µM, the TGI (SK-MEL-28 melanoma) was > 100 µM and the TGI (SK-MEL-5 melanoma) was 33.7 µM. The TGI (SK-OV-3 ovarian) was 84.8 µM, the TGI (SNB-19 CNS) was > 100 µM and the TGI (SNB-75 CNS) was 93.9 µM. For the same compound, the TGI (SR leukemia) was 88.2 µM, the TGI (SW-620 colon) was > 100 µM and the TGI (T-47D breast) was > 100 µM. The TGI (TK-10 renal) was > 100 µM, the TGI (U251 CNS) was > 100 µM and the TGI (UACC-257 melanoma) was > 100 µM. For the same compound, the TGI (UACC-62 melanoma) was 89.2 µM and the TGI (UO-31 renal) was > 100 µM.
